# Reference: patent publication US20170050957A1, “4-AMINO-6-(HETEROCYCLIC)PICOLINATES AND 6-AMINO-2-(HETEROCYCLIC)PYRIMIDINE-4-CARBOXYLATES AND THEIR USE AS HERBICIDES” (Dow AgroSciences LLC, priority 2013, published 2017)
# Read-outs that look alike come from different tables or passages of the source.
# What was measured:
# [1] = tested on: Key Grass and Sedge Weeds as well as Grass Crops; experiment: Post-emergent Test II herbicidal activity (Table 16); type: in vivo; settings: post-emergence, 336 h; for pest or weed control at 35 g/ha: 35 g ai/ha; for pest or weed control at 70 g/ha: 70 g ai/ha; for pest or weed control at 140 g/ha: 140 g ai/ha
# Summary of the method: (§1)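 Plants grown in greenhouse (~15 h photoperiod, 23-29 °C day, 22-28 °C night) to first or second true leaf stage, then sprayed post-emergence at 187 L/ha with a high rate and 1/2×, 1/4×, 1/8× and 1/16× dilutions. Injury scored visually after 14 d, 0-100% versus untreated plants.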
# [2] = tested on: Key Broadleaf Weed and Crop Species; experiment: Post-emergent Test II herbicidal activity (Table 15); type: in vivo; settings: post-emergence, 336 h, 14 d; for pest or weed control at 35 g/ha: 35 g ai/ha; for pest or weed control at 70 g/ha: 70 g ai/ha; for pest or weed control at 140 g/ha: 140 g ai/ha
# Summary of the method: as §1
# [3] = Cyperus esculentus, yellow nutsedge (Cyperus esculentus), 14 days after application, read-out: Visual Growth Reduction (%) 14 Days After Application CYPES
# [4] = Echinochloa crus-galli, barnyardgrass (Echinochloa crus-galli), 14 days after application, read-out: Visual Growth Reduction (%) 14 Days After Application ECHCG
# [5] = Oryza sativa, rice (Oryza sativa), 14 days after application, read-out: Visual Growth Reduction (%) 14 Days After Application ORYSA
# [6] = Setaria faberi, giant foxtail (Setaria faberi), 14 days after application, read-out: Visual Growth Reduction (%) 14 Days After Application SETFA
# [7] = Triticum aestivum, wheat, spring (Triticum aestivum), 14 days after application, read-out: Visual Growth Reduction (%) 14 Days After Application TRZAS
# [8] = Zea mays, maize, corn (Zea mays), 14 days after application, read-out: Visual Growth Reduction (%) 14 Days After Application ZEAMX
# [9] = Abutilon theophrasti, velvetleaf (Abutilon theophrasti), read-out: Visual Growth Reduction (%) 14 Days After Application, ABUTH
# [10] = Amaranthus retroflexus, redroot pigweed (Amaranthus retroflexus), read-out: Visual Growth Reduction (%) 14 Days After Application, AMARE
# [11] = Brassica napus, oilseed rape, canola (Brassica napus), read-out: Visual Growth Reduction (%) 14 Days After Application, BRSNN
# [12] = Chenopodium album, lambsquarters (Chenopodium album), read-out: Visual Growth Reduction (%) 14 Days After Application, CHEAL
# [13] = Euphorbia heterophylla, wild poinsettia (Euphorbia heterophylla), read-out: Visual Growth Reduction (%) 14 Days After Application, EPHHL
# [14] = Helianthus annuus, sunflower (Helianthus annuus), read-out: Visual Growth Reduction (%) 14 Days After Application, HELAN
SMILES,melting point [°C],"pest or weed control at 70 g/ha [1, 3] [%]","pest or weed control at 140 g/ha [1, 3] [%]","pest or weed control at 70 g/ha [1, 4] [%]","pest or weed control at 140 g/ha [1, 4] [%]","pest or weed control at 70 g/ha [1, 5] [%]","pest or weed control at 140 g/ha [1, 5] [%]","pest or weed control at 70 g/ha [1, 6] [%]","pest or weed control at 140 g/ha [1, 6] [%]","pest or weed control at 70 g/ha [1, 7] [%]","pest or weed control at 140 g/ha [1, 7] [%]","pest or weed control at 70 g/ha [1, 8] [%]","pest or weed control at 140 g/ha [1, 8] [%]","pest or weed control at 35 g/ha [2, 9] [%]","pest or weed control at 70 g/ha [2, 9] [%]","pest or weed control at 140 g/ha [2, 9] [%]","pest or weed control at 35 g/ha [2, 10] [%]","pest or weed control at 70 g/ha [2, 10] [%]","pest or weed control at 140 g/ha [2, 10] [%]","pest or weed control at 35 g/ha [2, 11] [%]",also measured
Cc1c(-c2ccc3sccc3c2)nc(C(=O)O)c(Cl)c1N [Compound 3.07],159 to 165,0 to 29,0 to 29,0 to 29,0 to 29,0 to 29,0 to 29,0 to 29,0 to 29,0 to 29,0 to 29,0 to 29,0 to 29,0 to 29,0 to 29,0 to 29,0 to 29,60 to 74,75 to 84,45 to 59,"pest or weed control at 35 g/ha ([1]; Cyperus esculentus, yellow nutsedge (Cyperus esculentus), 14 d, read-out: Visual Growth Reduction (%) 14 Days After Application, CYPES): 0 to 29%; pest or weed control at 35 g/ha ([1]; Echinochloa crus-galli, barnyardgrass (Echinochloa crus-galli), 14 d, read-out: Visual Growth Reduction (%) 14 Days After Application, ECHCG): 0 to 29%; pest or weed control at 35 g/ha ([1]; Oryza sativa, rice (Oryza sativa), 14 d, read-out: Visual Growth Reduction (%) 14 Days After Application, ORYSA): 0 to 29%; pest or weed control at 35 g/ha ([1]; Setaria faberi, giant foxtail (Setaria faberi), 14 d, read-out: Visual Growth Reduction (%) 14 Days After Application, SETFA): 0 to 29%; pest or weed control at 35 g/ha ([1]; Triticum aestivum, wheat, spring (Triticum aestivum), 14 d, read-out: Visual Growth Reduction (%) 14 Days After Application, TRZAS): 0 to 29%; pest or weed control at 35 g/ha ([1]; Zea mays, maize, corn (Zea mays), 14 d, read-out: Visual Growth Reduction (%) 14 Days After Application, ZEAMX): 0 to 29%; pest or weed control at 70 g/ha [2, 11]: 60 to 74%; pest or weed control at 140 g/ha [2, 11]: 60 to 74%; pest or weed control at 35 g/ha [2, 12]: 0 to 29%; pest or weed control at 70 g/ha [2, 12]: 0 to 29%; pest or weed control at 140 g/ha [2, 12]: 75 to 84%; pest or weed control at 35 g/ha [2, 13]: 0 to 29%; pest or weed control at 70 g/ha [2, 13]: 0 to 29%; pest or weed control at 140 g/ha [2, 13]: 0 to 29%; pest or weed control at 35 g/ha [2, 14]: 85 to 94%; pest or weed control at 70 g/ha [2, 14]: 85 to 94%; pest or weed control at 140 g/ha [2, 14]: 85 to 94%"
COC(=O)c1nc(-c2ccc3sccc3c2)nc(N)c1OC [Compound 3.08],125 to 127,0 to 29,30 to 44,0 to 29,75 to 84,0 to 29,0 to 29,0 to 29,0 to 29,60 to 74,60 to 74,60 to 74,75 to 84,0 to 29,30 to 44,30 to 44,0 to 29,30 to 44,60 to 74,0 to 29,"pest or weed control at 35 g/ha [1, 3]: 0 to 29%; pest or weed control at 35 g/ha [1, 4]: 0 to 29%; pest or weed control at 35 g/ha [1, 5]: 0 to 29%; pest or weed control at 35 g/ha [1, 6]: 0 to 29%; pest or weed control at 35 g/ha [1, 7]: 45 to 59%; pest or weed control at 35 g/ha [1, 8]: 30 to 44%; pest or weed control at 70 g/ha [2, 11]: 0 to 29%; pest or weed control at 140 g/ha [2, 11]: 30 to 44%; pest or weed control at 35 g/ha [2, 12]: 85 to 94%; pest or weed control at 70 g/ha [2, 12]: 85 to 94%; pest or weed control at 140 g/ha [2, 12]: 85 to 94%; pest or weed control at 35 g/ha [2, 13]: 60 to 74%; pest or weed control at 70 g/ha [2, 13]: 75 to 84%; pest or weed control at 140 g/ha [2, 13]: 85 to 94%; pest or weed control at 35 g/ha [2, 14]: 60 to 74%; pest or weed control at 70 g/ha [2, 14]: 75 to 84%; pest or weed control at 140 g/ha [2, 14]: 85 to 94%"
COc1c(N)nc(-c2ccc3sccc3c2)nc1C(=O)O [Compound 3.09],137 to 139,0 to 29,0 to 29,85 to 94,85 to 94,0 to 29,0 to 29,0 to 29,0 to 29,75 to 84,85 to 94,75 to 84,85 to 94,0 to 29,0 to 29,45 to 59,30 to 44,75 to 84,85 to 94,45 to 59,"pest or weed control at 35 g/ha [1, 3]: 0 to 29%; pest or weed control at 35 g/ha [1, 4]: 85 to 94%; pest or weed control at 35 g/ha [1, 5]: 0 to 29%; pest or weed control at 35 g/ha [1, 6]: 0 to 29%; pest or weed control at 35 g/ha [1, 7]: 60 to 74%; pest or weed control at 35 g/ha [1, 8]: 60 to 74%; pest or weed control at 70 g/ha [2, 11]: 85 to 94%; pest or weed control at 140 g/ha [2, 11]: 95 to 100%; pest or weed control at 35 g/ha [2, 12]: 85 to 94%; pest or weed control at 70 g/ha [2, 12]: 85 to 94%; pest or weed control at 140 g/ha [2, 12]: 95 to 100%; pest or weed control at 35 g/ha [2, 13]: 95 to 100%; pest or weed control at 70 g/ha [2, 13]: 95 to 100%; pest or weed control at 140 g/ha [2, 13]: 95 to 100%; pest or weed control at 35 g/ha [2, 14]: 60 to 74%; pest or weed control at 70 g/ha [2, 14]: 75 to 84%; pest or weed control at 140 g/ha [2, 14]: 85 to 94%"
